Results on nine molecules are retold here after ChEMBL document CHEMBL5465560, “Selectivity Literature for EUbOPEN Chemogenomic Library” (2024).

Experiment [1] concerns the target Maternal embryonic leucine zipper kinase (Homo sapiens) (UniProt Q14680). As to the kind of experiment: Selectivity interaction (Kinase panel (Z-LYTE Assay)) EUB0001632a MELK. To be noted: at 10 µM.
Experiment [2] addresses T1, Mitogen-activated protein kinase kinase kinase kinase 3 (Homo sapiens) (UniProt Q8IVH8).
T1 sequence (whole entry): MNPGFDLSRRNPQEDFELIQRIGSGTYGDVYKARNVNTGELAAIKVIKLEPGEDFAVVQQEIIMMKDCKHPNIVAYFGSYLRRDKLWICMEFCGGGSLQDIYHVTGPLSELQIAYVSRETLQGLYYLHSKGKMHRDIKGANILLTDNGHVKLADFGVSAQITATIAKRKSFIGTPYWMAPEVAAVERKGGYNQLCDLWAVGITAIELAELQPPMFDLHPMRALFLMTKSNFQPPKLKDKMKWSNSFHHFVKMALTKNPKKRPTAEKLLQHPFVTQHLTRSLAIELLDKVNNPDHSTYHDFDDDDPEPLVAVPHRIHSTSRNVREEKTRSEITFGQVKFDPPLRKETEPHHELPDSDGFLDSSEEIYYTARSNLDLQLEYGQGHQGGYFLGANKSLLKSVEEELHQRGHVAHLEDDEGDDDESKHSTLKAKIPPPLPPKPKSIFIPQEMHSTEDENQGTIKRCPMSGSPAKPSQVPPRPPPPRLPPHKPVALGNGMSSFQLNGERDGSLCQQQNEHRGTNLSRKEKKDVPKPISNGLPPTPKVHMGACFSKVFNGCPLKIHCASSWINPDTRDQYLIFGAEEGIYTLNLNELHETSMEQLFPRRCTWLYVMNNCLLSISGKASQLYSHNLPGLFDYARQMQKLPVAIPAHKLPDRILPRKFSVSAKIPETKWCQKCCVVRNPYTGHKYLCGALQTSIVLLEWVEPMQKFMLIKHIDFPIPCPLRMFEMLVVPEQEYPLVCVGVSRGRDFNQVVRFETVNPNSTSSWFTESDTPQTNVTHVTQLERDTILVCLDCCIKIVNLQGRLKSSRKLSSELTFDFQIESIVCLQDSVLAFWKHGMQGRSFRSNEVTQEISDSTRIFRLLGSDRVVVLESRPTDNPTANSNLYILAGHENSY
As to the kind of experiment: Selectivity interaction (KinomeScan (DiscoverX)) EUB0001619a MAP4K3. The conditions noted are these: at 1 µM.

Experiment [3] addresses Calcium/calmodulin-dependent protein kinase type 1D (Homo sapiens) (UniProt Q8IU85). The conditions noted are these: at 10 µM.
Experiment [4] deals with T2, Histone-lysine N-methyltransferase SUV39H1 (Homo sapiens) (UniProt O43463).
T2 sequence (whole entry): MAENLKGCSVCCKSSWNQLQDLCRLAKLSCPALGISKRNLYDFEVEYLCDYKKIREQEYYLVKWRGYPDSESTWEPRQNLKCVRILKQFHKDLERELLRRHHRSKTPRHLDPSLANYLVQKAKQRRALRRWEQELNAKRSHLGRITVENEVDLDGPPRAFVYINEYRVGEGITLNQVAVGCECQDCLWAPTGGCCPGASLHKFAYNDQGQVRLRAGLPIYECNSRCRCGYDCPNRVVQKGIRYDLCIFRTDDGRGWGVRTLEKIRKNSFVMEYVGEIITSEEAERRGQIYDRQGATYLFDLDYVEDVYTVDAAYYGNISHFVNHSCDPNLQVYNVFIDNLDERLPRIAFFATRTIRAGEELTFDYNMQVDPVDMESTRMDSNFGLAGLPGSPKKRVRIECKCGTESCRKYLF
To be noted: at 1 µM.

Experiment [5] concerns Tyrosine-protein kinase ABL1 (Homo sapiens), P00519 [F317I]. As to the kind of experiment: Selectivity interaction (KinomeScan (DiscoverX)) EUB0000045b ABL1. The conditions noted are these: at 10 µM.
Tyrosine-protein kinase ABL1 (Homo sapiens), P00519 [F317I], sequence (P00519 whole entry F317I): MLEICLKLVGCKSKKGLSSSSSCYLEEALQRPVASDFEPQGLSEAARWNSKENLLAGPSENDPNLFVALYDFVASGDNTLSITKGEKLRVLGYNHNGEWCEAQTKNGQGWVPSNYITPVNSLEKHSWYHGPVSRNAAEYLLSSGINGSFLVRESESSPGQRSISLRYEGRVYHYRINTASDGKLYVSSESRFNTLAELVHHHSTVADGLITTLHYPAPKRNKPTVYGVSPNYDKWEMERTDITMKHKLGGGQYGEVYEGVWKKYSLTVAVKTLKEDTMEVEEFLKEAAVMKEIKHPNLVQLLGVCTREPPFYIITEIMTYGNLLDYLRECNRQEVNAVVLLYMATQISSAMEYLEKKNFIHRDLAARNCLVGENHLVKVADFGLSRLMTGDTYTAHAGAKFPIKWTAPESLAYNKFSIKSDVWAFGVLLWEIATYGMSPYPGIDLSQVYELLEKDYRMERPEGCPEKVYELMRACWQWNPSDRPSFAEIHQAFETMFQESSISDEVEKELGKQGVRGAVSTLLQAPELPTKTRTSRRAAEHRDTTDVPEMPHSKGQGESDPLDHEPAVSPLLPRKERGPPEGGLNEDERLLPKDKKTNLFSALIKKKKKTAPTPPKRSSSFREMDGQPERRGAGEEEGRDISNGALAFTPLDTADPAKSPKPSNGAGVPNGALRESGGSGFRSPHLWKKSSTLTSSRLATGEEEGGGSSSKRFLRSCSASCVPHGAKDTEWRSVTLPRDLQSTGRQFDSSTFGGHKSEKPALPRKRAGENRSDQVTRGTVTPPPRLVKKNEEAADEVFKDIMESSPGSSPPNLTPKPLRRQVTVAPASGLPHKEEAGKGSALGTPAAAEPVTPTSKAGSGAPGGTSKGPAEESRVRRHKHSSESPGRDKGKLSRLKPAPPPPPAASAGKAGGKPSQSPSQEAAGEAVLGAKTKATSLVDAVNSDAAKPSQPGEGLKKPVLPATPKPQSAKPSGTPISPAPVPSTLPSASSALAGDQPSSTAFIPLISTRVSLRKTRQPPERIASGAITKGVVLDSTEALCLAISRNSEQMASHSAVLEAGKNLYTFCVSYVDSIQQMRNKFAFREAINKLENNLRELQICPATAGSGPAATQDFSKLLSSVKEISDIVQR
The target in experiment [6] is Mitogen-activated protein kinase 10 (Homo sapiens, UniProt P53779). As to the kind of experiment: Selectivity interaction (KinomeScan (DiscoverX)) EUB0000045b MAPK10.
Mitogen-activated protein kinase 10, sequence (P53779 whole entry): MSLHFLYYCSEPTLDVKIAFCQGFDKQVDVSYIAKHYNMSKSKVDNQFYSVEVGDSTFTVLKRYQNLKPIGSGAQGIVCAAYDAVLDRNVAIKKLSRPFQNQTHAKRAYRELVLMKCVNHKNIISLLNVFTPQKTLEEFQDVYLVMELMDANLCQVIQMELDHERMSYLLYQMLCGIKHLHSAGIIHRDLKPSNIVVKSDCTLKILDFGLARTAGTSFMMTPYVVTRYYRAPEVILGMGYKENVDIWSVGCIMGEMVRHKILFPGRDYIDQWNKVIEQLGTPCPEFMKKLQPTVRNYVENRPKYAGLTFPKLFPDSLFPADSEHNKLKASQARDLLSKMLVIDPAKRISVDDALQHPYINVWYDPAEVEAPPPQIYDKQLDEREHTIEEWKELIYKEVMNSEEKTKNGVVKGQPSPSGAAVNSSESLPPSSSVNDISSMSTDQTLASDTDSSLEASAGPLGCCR
The next experiment addresses Activated CDC42 kinase 1 (Homo sapiens, UniProt Q07912). As to the kind of experiment: Selectivity interaction (ProQinase) EUB0000171b TNK2.
The target in experiment [7] is Phosphatidylinositol 4,5-bisphosphate 3-kinase catalytic subunit gamma isoform (Homo sapiens) (UniProt P48736). As to the kind of experiment: Selectivity interaction (Ambit KINOMEscan and KiNATiv profiling in Jurkat cells) EUB0000090b PIK3CG. Format: cell-based. The conditions noted are these: at 1 µM.
Phosphatidylinositol 4,5-bisphosphate 3-kinase catalytic subunit gamma isoform (Homo sapiens), sequence (P48736 whole entry, looked up, canonical isoform): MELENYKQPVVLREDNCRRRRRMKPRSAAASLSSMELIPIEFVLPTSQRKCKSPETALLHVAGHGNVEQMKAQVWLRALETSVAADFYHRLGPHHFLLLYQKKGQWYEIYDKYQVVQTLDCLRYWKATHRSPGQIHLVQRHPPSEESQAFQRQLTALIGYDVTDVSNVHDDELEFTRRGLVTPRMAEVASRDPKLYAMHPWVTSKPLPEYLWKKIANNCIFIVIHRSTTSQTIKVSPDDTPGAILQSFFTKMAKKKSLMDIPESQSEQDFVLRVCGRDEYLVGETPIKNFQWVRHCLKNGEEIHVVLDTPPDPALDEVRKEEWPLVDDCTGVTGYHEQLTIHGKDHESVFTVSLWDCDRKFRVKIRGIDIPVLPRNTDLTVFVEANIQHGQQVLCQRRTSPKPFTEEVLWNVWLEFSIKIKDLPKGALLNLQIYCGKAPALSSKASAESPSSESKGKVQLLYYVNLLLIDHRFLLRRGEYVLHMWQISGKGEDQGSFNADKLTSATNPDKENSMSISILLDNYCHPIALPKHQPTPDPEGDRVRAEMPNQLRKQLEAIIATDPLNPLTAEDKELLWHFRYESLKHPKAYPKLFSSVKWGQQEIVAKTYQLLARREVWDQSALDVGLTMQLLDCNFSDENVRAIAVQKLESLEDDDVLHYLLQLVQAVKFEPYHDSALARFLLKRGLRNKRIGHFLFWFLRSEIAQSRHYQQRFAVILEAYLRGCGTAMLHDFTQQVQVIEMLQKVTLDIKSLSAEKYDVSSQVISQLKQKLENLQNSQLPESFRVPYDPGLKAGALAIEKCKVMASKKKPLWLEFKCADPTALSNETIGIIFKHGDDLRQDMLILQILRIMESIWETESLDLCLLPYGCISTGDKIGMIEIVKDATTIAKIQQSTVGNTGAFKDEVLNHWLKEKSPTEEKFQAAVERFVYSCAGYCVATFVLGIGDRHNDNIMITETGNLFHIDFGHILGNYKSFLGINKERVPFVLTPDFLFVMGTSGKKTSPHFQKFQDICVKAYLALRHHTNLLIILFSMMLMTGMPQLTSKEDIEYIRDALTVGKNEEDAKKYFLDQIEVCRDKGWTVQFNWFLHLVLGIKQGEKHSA
Experiment [8] addresses T3, Tyrosine-protein kinase ITK/TSK (Homo sapiens) (UniProt Q08881).
T3 sequence (whole entry): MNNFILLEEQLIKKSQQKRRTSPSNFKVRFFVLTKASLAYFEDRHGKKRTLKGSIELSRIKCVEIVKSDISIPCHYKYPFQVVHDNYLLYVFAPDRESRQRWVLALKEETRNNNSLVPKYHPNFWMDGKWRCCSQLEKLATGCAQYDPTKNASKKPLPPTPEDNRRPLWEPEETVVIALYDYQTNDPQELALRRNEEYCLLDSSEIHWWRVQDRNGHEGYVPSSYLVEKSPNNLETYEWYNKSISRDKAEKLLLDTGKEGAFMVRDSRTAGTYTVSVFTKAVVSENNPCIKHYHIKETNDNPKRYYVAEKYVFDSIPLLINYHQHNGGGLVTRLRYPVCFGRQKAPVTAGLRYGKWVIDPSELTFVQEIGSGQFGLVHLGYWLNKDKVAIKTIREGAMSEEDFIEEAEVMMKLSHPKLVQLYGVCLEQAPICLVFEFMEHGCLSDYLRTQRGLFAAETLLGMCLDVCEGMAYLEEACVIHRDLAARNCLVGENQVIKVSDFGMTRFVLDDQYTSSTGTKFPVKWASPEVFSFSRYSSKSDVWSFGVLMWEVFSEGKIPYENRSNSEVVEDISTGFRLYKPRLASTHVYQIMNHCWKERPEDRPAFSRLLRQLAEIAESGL
As to the kind of experiment: Selectivity interaction (KinomeScan (DiscoverX)) EUB0000655a ITK. The conditions noted are these: at 10 µM.

Experiment [9] addresses T2, Histone-lysine N-methyltransferase SUV39H1 (Homo sapiens). As to the kind of experiment: Selectivity interaction (Methyltransferase screen (radiometric assays, panel of 8 PRMTs, 21 protein lysine methyltransferases, 3 DNA methyltransferases, and one RNA methyltransferase)) EUB0000272b SUV39H1.

Activated CDC42 kinase 1, sequence (Q07912 whole entry, looked up, canonical isoform): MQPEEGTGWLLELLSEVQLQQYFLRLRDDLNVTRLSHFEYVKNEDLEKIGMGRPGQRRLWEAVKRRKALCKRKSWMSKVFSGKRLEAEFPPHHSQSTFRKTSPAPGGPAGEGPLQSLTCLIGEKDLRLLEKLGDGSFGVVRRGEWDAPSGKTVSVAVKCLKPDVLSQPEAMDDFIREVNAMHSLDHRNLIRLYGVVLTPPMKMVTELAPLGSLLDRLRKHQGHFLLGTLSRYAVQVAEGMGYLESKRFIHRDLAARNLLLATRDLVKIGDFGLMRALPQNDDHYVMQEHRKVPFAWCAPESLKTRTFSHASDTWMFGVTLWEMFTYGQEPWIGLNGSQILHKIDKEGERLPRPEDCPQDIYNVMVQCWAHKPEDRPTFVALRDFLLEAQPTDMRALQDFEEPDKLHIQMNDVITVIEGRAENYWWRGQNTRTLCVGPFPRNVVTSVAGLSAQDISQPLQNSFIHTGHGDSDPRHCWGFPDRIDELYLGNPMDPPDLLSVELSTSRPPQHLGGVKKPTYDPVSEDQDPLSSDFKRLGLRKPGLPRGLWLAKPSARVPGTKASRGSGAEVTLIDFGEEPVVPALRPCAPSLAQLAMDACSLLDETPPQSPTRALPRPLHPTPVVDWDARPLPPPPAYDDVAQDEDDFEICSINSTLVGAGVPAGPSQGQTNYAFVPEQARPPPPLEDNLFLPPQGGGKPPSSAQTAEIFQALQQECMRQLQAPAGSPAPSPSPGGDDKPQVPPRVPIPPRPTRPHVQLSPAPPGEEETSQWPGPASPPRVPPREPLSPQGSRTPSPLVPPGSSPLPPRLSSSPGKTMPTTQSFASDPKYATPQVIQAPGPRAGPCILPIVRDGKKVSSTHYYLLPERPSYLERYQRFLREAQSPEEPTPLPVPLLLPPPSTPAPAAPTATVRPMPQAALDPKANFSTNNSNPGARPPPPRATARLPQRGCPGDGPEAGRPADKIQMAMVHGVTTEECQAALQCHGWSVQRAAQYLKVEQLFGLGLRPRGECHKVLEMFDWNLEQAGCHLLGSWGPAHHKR
Maternal embryonic leucine zipper kinase (Homo sapiens), sequence (Q14680 whole entry, looked up): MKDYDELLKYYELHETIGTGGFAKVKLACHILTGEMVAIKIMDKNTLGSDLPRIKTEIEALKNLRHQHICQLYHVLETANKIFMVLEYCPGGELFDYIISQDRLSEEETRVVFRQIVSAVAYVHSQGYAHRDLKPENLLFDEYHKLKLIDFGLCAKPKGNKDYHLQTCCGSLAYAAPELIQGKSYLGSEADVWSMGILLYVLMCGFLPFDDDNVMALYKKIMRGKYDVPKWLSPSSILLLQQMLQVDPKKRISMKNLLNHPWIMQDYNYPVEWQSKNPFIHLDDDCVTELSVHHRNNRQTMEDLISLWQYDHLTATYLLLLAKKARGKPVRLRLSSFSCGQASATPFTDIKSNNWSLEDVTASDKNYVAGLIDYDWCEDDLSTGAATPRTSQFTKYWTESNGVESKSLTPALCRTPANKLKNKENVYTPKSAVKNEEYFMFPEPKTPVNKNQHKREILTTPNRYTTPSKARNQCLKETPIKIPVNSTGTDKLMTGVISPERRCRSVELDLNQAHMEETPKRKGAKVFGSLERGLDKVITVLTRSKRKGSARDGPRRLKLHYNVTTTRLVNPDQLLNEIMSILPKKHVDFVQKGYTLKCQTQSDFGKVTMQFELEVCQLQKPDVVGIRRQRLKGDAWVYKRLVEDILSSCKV
Calcium/calmodulin-dependent protein kinase type 1D (Homo sapiens), sequence (Q8IU85 whole entry, looked up): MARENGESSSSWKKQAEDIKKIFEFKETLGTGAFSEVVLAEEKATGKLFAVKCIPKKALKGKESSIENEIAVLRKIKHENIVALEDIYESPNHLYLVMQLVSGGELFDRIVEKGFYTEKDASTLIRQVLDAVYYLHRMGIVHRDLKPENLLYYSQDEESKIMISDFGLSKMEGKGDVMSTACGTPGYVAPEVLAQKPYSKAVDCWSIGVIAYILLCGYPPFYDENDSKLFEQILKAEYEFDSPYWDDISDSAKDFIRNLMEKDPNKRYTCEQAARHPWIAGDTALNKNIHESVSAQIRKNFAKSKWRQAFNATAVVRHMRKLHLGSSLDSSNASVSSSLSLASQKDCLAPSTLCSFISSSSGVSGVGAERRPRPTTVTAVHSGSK

As for `Cn1cc(-n2cnc3c(NCc4nc5cc(Cl)c(Cl)cc5[nH]4)nc(N4CCOCC4)nc32)cn1`, the % of control in experiment [1] amounted to 26.9%.

`N#Cc1cccc(-c2c[nH]c3ncnc(N4CCOCC4)c23)c1` displayed a % of control in [2] of 4.8%.

For `Cc1cc([C@@H](C)Nc2ccccc2C(=O)O)c2nc(N3CCOCC3)cc(=O)n2c1` [AZD-6482], in [3], the % of control was found to be 100%.

Regarding `CNCCN1CCC(c2cc(CN(C)C(=O)c3cccc(Oc4ccccc4)c3)ccn2)CC1`, the % activity in experiment [4] was greater than 90%.

In the case of `C=CC(=O)Nc1cc(-n2c(=O)ccc3cnc4ccc(-c5ccc(NS(C)(=O)=O)cc5)cc4c32)ccc1C`, the values for the % of control in experiment [5], in experiment [6] (at 1 µM) and in [6] (at 10 µM) were 100%, 100% and 20%, respectively.

Regarding `C=CC(=O)Nc1cccc(C(=O)Nc2ccc(Nc3cc(-c4[nH]c(SC)nc4C)ccn3)cc2)c1`, the % of control at Activated CDC42 kinase 1 (at 1 µM) was determined as 100%; on Activated CDC42 kinase 1 (at 5 µM) it was 95%.

On to `CN(C)C/C=C/C(=O)Nc1ccc(C(=O)N2CCCC(Nc3ncc(Cl)c(-c4c[nH]c5ccccc45)n3)C2)cc1` (stereo not drawn), for which the % of control in [7] was found to be 92%.

Turning to `CN(C)CCOc1ccc(-c2nc(-c3ccncc3)c(-c3ccc4c(c3)CC/C4=N\O)[nH]2)cc1`, in [8], the % of control was found to be 98%.

Regarding `Cc1cc(C)cc([C@H]2c3cc(C)ccc3NC(=O)CN2C(=O)c2ccc(Br)s2)c1`, the figures for the % of activity in experiment [9] (at 1 µM) and in experiment [9] (at 10 µM) were 100% and 96.7%, respectively.
